How the values were obtained:
BIRC2 = target: T1, BIRC2 (Homo sapiens, UniProt Q13490); assay: BIRC2 (cIAP1) degradation by Western blotting; type: cell-based; settings: TNFα 10 ng/ml, 2D10 and 293T cells
T1 construct: endogenous in cells; host or cells: 2D10, 293T and CD4+ T cells
Experimental: It was investigated whether Debio-1143 reverses HIV-1 latency by acting on the NF-κB pathway. Canonical and non-canonical NF-κB signaling pathways play an important role in the reactivation of latent HIV-1, implicating its regulation as an important therapeutic strategy for latency reversal.
Method: 2D10 (A) or 293T (B) and CD4+ T cells (C) cells were treated with DMSO, Debio-1143 (1 μM) and TNFα (10 ng/ml) for the indicated times and analyzed by Western blotting for BIRC2 and IkBα protein expression using antibodies specifically detecting human BIRC2, human IkBα, or human CypA, such as commercially available (e.g. from R&D Systems, Cell Signaling, Santa Cruz Biotechnology, or other sources).

[1] = tested on: latent HIV-1 in resting CD4+ T cells; assay: Ex vivo HIV-1 reactivation in human resting CD4+ T cells from ART-treated HIV-1-infected humanized BLT mice (HIV RNA in supernatant); type: cell-based
Experimental: The efficacy of IAPa, ICI or IAPa/ICI combinations in reversing HIV-1 latency was tested in resting CD4+ T cells derived from ART-treated HIV-1-infected humanized BLT mice.
Human resting CD4+ T cells from ten mice were isolated from blood, thymic organoid, lung, spleen, bone marrow, lymph nodes and liver. Isolated human resting CD4+ T cells were pooled, counted, split and treated in duplicate for 48 h with different IAPa (1 μM) or ICI (10 μg/ml) in monotherapy, or the IAPa/ICI combinations. Amounts of virions released from cells were quantified at the indicated time points by quantifying HIV RNA levels (HIV RNA copies/mL) in supernatant of cell culture using one-step reverse transcriptase quantitative real-time PCR (ABI custom TaqMan Assays-by-Design) according to the manufacturer's instructions. Primers were 5-[…]-3 and 5-[…]-3, and MGB probe 5-FAM-[…]-Q-3, where FAM is 6-carboxyfluorescein.
(§1) The experiment was carried out using the same agents as described above for Example 8.1 (with the exception that no birinapant was used).

[2] = tested on: latent HIV-1 in rCD4+ cells co-cultured with CD8+ cells; assay: HIV-1 reactivation in ex vivo co-cultures of rCD4+ and CD8+ cells from an ART-treated HIV patient (HIV RNA in supernatant); type: cell-based, human
Experimental: The efficacy of IAPa, ICI or IAPa/ICI combinations in reversing HIV-1 latency was tested in HIV-1 infected rCD4+ cells co-cultured for 48 h with CD8+ cells from the same donor.
Method: Blood from one HIV-1-infected patient under ART was collected (500 mL) and CD4+ and CD8+ cells isolated using beads coated with specific antibodies following manufacturer's instruction (MojoSort™ Human Cell Isolation Kits from Biolegend). The CD4+ T cells were re-infected with HIV-1 (JR-CSF) (1 μg of p24), incubated for 3 days to allow establishment of infection, and treated with ART ([…]) for 7 days to ensure presence of enough latent HIV CD4+ cells (rCD4+) in the culture. Upon ART removal, rCD4 were then isolated following manufacturer's instruction (EasySep™ Human Resting CD4+ T Cell Isolation Kit). The isolated rCD4 were mixed with autologous (from the same patient) uninfected CD8+ T cells at a 1:1 ratio (100,000 cells) and incubated in duplicate for 48 h with different IAPa ([…]) or ICI (10 μg/ml) in monotherapy, or the IAPa/ICI combinations. Amounts of virions released from cells were quantified at the indicated time points by quantifying HIV RNA levels (HIV RNA copies/mL) in supernatant of cell culture using one-step reverse transcriptase quantitative real-time PCR (ABI custom TaqMan Assays-by-Design) according to the manufacturer's instructions. Primers were 5-[…]-3 and 5-[…]-3, and MGB probe 5-FAM-[…]-Q-3, where FAM is 6-carboxyfluorescein.

[3] = tested on: latent HIV in resting CD4+ T-lymphocytes; assay: HIV-1 reactivation in resting CD4+ T cells from PBMCs of three ART-treated HIV patients (HIV RNA in supernatant); type: cell-based, human
Excerpt: The experiments of this example analyzed the ability of IAPa, ICIs, or IAPa/ICI combinations at reactivating latent HIV in resting CD4+ T-lymphocytes isolated from peripheral blood monocytic cells (PBMCs) derived from HIV patients currently under ART.
Method: Resting CD4+ T cells were isolated from PBMCs of three ART-treated HIV patients by negative selection and magnetic separation (Easysep Mouse/Human Chimera Isolation Kits from […] technologies). Isolated resting CD4+ T cells (50,000 cells/50 μL) were treated in duplicate for 48h with different IAPa (1 μM) or ICI (10 μg/ml) in monotherapy, or the IAPa/ICI combinations. Amounts of virions released from cells were quantified at the indicated time points by quantifying HIV RNA levels (HIV RNA copies/mL) in supernatant of cell culture using one-step reverse transcriptase quantitative real-time PCR (ABI custom TaqMan Assays-by-Design) according to the manufacturer's instructions. Primers were 5-[…]-3 and 5-[…]-3, and MGB probe 5-FAM-[…]-Q-3, where FAM is 6-carboxyfluorescein.
as §1

[4] = tested on: latent HIV-1 in 2D10 cells; assay: HIV-1 reactivation in latent GFP-reporter 2D10 cells, Debio 1143 and other LRAs alone or in combination; type: cell-based; settings: LRA at single predetermined concentration with Debio 1143, already at 2 μM Debio 1143, 48 h
Experimental: We compared the efficacy of Debio-1143 at reversing HIV-1 latency with that of other LRAs. We then analyzed the cytotoxicity of Debio-1143 with that of the other LRAs on 2D10 cells. Drug titration was conducted.
Methods: HIV-1 latent GFP-reporter 2D10 cells (100,000 cells/100 μL) were treated in triplicate for 48 h with increasing concentrations of either only Debio-1143 or the LRAs (2000 nM or 20000 nM), or with Debio 1143 (2000 nM or 20000 nM) in combination with the LRAs at a single predetermined concentration (see Table 2). HIV reactivation was analyzed via GFP expression by flow cytometry.

2D10 cells = assay: Cytotoxicity by LDH assay in 2D10 cells; type: cell-based; settings: 0 to 20 μM, 48 h
Experimental: Drug titration was conducted.
For analysis of cell viability, cells (100,000 cells/100 μL) were treated in triplicate for 48 h with increasing concentrations of Debio-1143 or other known LRAs (0 to 20 μM). Cellular cytotoxicity was analyzed by Lactate dehydrogenase (LDH) assay. LDH is an oxidoreductase enzyme that catalyzes the interconversion of pyruvate and lactate. Cells release LDH into the bloodstream after tissue damage or red blood cell hemolysis. Since LDH is a fairly stable enzyme, it has been widely used to evaluate the presence of damage and toxicity of tissue and cells. In this particular, LDH reduces NAD to NADH, which is specifically detected by colorimetric (490 nm) assay.

[5] = IAPa 1 μM monotherapy (0.1% DMSO, no ICI), 48 h
[6] = IAPa 1 μM with Control IgG1, 48 h
[7] = IAPa 1 μM with Control IgG2, 48 h
[8] = IAPa 1 μM monotherapy (0.1% DMSO, no ICI), 48 h (Table 3)
[9] = IAPa 1 μM with Control IgG1, 48 h (Table 3)
[10] = IAPa 1 μM with Control IgG2, 48 h (Table 3)

T1 sequence (Q13490 whole entry): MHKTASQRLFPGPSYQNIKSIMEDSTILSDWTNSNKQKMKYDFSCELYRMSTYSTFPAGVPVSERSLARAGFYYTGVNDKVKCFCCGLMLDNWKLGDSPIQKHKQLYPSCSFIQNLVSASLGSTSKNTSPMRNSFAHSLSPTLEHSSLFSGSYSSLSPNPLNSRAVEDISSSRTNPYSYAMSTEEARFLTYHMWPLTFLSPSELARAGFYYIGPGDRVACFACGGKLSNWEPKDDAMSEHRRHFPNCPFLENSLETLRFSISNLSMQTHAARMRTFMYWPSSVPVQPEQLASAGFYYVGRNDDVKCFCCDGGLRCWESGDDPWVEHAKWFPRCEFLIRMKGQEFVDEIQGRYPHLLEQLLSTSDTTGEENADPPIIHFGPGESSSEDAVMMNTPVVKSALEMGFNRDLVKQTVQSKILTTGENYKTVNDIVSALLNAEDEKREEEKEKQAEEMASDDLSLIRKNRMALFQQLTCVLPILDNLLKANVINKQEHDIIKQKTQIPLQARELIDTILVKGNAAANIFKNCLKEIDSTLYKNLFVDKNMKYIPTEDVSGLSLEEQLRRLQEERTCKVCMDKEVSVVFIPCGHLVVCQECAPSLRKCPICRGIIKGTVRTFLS

Question: With TNFα [reference compound] as the molecule, how does the BIRC2 degradation (BIRC2) read?
Answer: not

Question: Which results are given for `CN[C@@H](C)C(=O)N[C@H](C(=O)N1CCC[C@H]1c1nc(C(=O)c2ccc(F)cc2)cs1)C1CCCCC1` [LCL161]?
Answer: latency reversal class (HIV RNA copies/ml in supernatant) [1, 5]: 2 (Between 2501 and 5000 RNA copies/ml were classified as “2”); latency reversal class (HIV RNA copies/ml in supernatant) [1, 6]: 2 (Between 2501 and 5000 RNA copies/ml were classified as “2”); latency reversal class (HIV RNA copies/ml in supernatant) [1, 7]: 2 (Between 2501 and 5000 RNA copies/ml were classified as “2”); latency reversal class (HIV RNA copies/ml in supernatant) [2, 8]: 3 (Subsequent classes were defined accordingly in steps of 500 RNA copies/ml); latency reversal class (HIV RNA copies/ml in supernatant) [2, 9]: 2 (Subsequent classes were defined accordingly in steps of 500 RNA copies/ml); latency reversal class (HIV RNA copies/ml in supernatant) [2, 10]: 3 (Subsequent classes were defined accordingly in steps of 500 RNA copies/ml); latency reversal class (HIV RNA copies/ml in supernatant) [3, 5]: 1 (Between 501 and 1000 RNA copies/ml were classified as “1”); latency reversal class (HIV RNA copies/ml in supernatant) [3, 6]: 1 (Between 501 and 1000 RNA copies/ml were classified as “1”); latency reversal class (HIV RNA copies/ml in supernatant) [3, 7]: 1 (Between 501 and 1000 RNA copies/ml were classified as “1”)

Question: How did the “degree of HIV reactivation in combination with Debio 1143” value (shortened to “degree of HIV reactivation”) [4] turn out when `Nc1ccccc1NC(=O)c1ccc(CNC(=O)OCc2cccnc2)cc1` [entinostat] was run?
Answer: high degrees of HIV reactivation

Question: Which “degree of HIV reactivation” value [4] does the source give for `O=C(CCCCCCC(=O)Nc1ccccc1)NO` [vorinostat] here?
Answer: high degrees of HIV reactivation

Question: Which results are given for `CN[C@@H](C)C(=O)N[C@H](C(=O)N1CCC[C@H]1C(=O)Nc1sc(-c2ncco2)nc1-c1ccccc1)C1CCCCC1` [CUDC-427]?
Answer: latency reversal class (HIV RNA copies/ml in supernatant) [1, 5]: 2 (Between 2501 and 5000 RNA copies/ml were classified as “2”); latency reversal class (HIV RNA copies/ml in supernatant) [1, 6]: 2 (Between 2501 and 5000 RNA copies/ml were classified as “2”); latency reversal class (HIV RNA copies/ml in supernatant) [1, 7]: 2 (Between 2501 and 5000 RNA copies/ml were classified as “2”); latency reversal class (HIV RNA copies/ml in supernatant) [2, 8]: 3 (Subsequent classes were defined accordingly in steps of 500 RNA copies/ml); latency reversal class (HIV RNA copies/ml in supernatant) [2, 9]: 3 (Subsequent classes were defined accordingly in steps of 500 RNA copies/ml); latency reversal class (HIV RNA copies/ml in supernatant) [2, 10]: 3 (Subsequent classes were defined accordingly in steps of 500 RNA copies/ml); latency reversal class (HIV RNA copies/ml in supernatant) [3, 5]: 1 (Between 501 and 1000 RNA copies/ml were classified as “1”); latency reversal class (HIV RNA copies/ml in supernatant) [3, 6]: 1 (Between 501 and 1000 RNA copies/ml were classified as “1”); latency reversal class (HIV RNA copies/ml in supernatant) [3, 7]: 1 (Between 501 and 1000 RNA copies/ml were classified as “1”)

Question: Which results are given for `CC[C@H](NC(=O)[C@H](C)NC)C(=O)N1C[C@@H](O)C[C@H]1Cc1c(-c2[nH]c3cc(F)ccc3c2C[C@@H]2C[C@H](O)CN2C(=O)[C@H](CC)NC(=O)[C@H](C)NC)[nH]c2cc(F)ccc12` [Birinapant]?
Answer: latency reversal class (HIV RNA copies/ml in supernatant) ([2]; IAPa 1 μM monotherapy (0.1% DMSO, no ICI), 48 h (Table 4)): 3 (Subsequent classes were defined accordingly in steps of 500 RNA copies/ml); latency reversal class (HIV RNA copies/ml in supernatant) ([2]; IAPa 1 μM with Control IgG1, 48 h (Table 4)): 3 (Subsequent classes were defined accordingly in steps of 500 RNA copies/ml); latency reversal class (HIV RNA copies/ml in supernatant) ([2]; IAPa 1 μM with Control IgG2, 48 h (Table 4)): 3 (Subsequent classes were defined accordingly in steps of 500 RNA copies/ml)

Question: With `Cc1[nH]c2ccccc2c1CCNCc1ccc(/C=C/C(=O)NO)cc1` [panobinostat] as the molecule, how does the “cytotoxicity (LDH assay)” value (2D10 cells) read?
Answer: highly toxic

Question: What does the source list for `CCC/C=C/C=C/C(=O)O[C@H]1/C(=C/C(=O)OC)C[C@H]2C[C@H]([C@@H](C)O)OC(=O)C[C@H](O)C[C@@H]3C[C@H](OC(C)=O)C(C)(C)[C@](O)(C[C@@H]4C/C(=C/C(=O)OC)C[C@H](/C=C/C(C)(C)[C@]1(O)O2)O4)O3` [bryostatin-1]?
Answer: degree of HIV reactivation in combination with Debio 1143 [4]: high degrees of HIV reactivation; cytotoxicity (LDH assay) (2D10 cells): highly toxic

Question: Which “cytotoxicity (LDH assay)” value (2D10 cells) does the source give for `CN1C(=O)[C@@]23C[C@]4([C@]56C[C@@]78SS[C@@](CO)(C(=O)N7[C@H]5Nc5ccccc56)N(C)C8=O)c5ccccc5N[C@@H]4N2C(=O)[C@]1(CO)SS3` [chaetocin] here?
Answer: highly toxic

Question: How did the “degree of HIV reactivation” value [4] turn out when `Cc1sc2c(c1C)C(c1ccc(Cl)cc1)=N[C@@H](CC(=O)OC(C)(C)C)c1nnc(C)n1-2` [JQ1] was run?
Answer: high degrees of HIV reactivation

Source: patent US20220016079A1, “COMBINATION TREATMENT OF HIV INFECTIONS” (priority 2018, published 2022)
